Results as given in a melting point compilation (Tetko et al.; mined from patent text by program, amines drawn as free bases though some values may be those of a salt).

SMILES	melting point
O=c1c2c(Cl)cc(Cl)cc2n(Cc2ccccc2)c(=O)n1Cc1ccc(Cl)cc1	161 to 165 °C
Cc1nnc(-c2ccc3c(c2)c2cc(-c4ccc(Cl)cc4Cl)c(=O)n(C)c2n3C)o1	311 to 316 °C
COc1ccc(-c2c(-c3cc(OC)c(OC)c(OC)c3)ncn2-c2ccccc2)cc1O	176 to 177 °C
CCCn1ccc2c(NCCc3ccc(OC)cc3)cccc2c1=O	109 to 110 °C
Brc1ccc(-c2cccs2)s1	55 to 56 °C
Nc1ccc(C(=O)N2CCC[C@@H]3CCCC[C@H]32)cc1[N+](=O)[O-] (relative stereo)	212 to 215 °C
N#CCCNC(=O)c1cccc(-c2cccc3sc(Cc4ccc(F)c(F)c4)cc23)c1	123 to 124 °C
O=C1C(CN2CCN(CCO)CC2)CCN1c1ccc(Cl)cc1 (configuration not stated)	130 to 131 °C
CSc1sc(-c2cccnc2)c2c1-c1oncc1C(C)(C)C2	123 to 125 °C
CC1=Cc2cccc(S(N)(=O)=O)c2OS1(=O)=O	204 to 205 °C
O=C(Nc1ccc(Cl)cn1)c1nc(-c2ccccc2)c2ccccc2c1O	249 to 251 °C
CC(C)N1C(=O)N(c2ccc(F)cc2)CSC1=NC(C)(C)C	109 to 110 °C
Cn1cnc2c(ccc3[nH]cc(CCN)c32)c1=O	279 to 285 °C
CCOC(=O)C(=NOC(C)(C)C(=O)OC(C)(C)C)c1csc(NC(c2ccccc2)(c2ccccc2)c2ccccc2)n1	124 to 125 °C
Cc1ccc(OC2COc3ccc(OCc4ccc5cc(F)ccc5n4)cc3C2O)cn1 (configuration not stated)	164 to 165 °C
O=C(c1sc2c(ccc(=O)n2-c2ccccc2)c1Br)N1CC(O)C1	199 °C
CC1CCCCN1c1nc(N)nc(-c2cc(Cl)ccc2Cl)n1 (configuration not stated)	136 to 137 °C
O=[N+]([O-])c1oc2ccccc2c1Br	130 to 132 °C

SMILES	melting point
COC(=O)C1C(c2ccc(Br)cc2)CC2CCC1N2C (configuration not stated)	114 to 116 °C
Nc1nc2c(ncn2C(c2ccccc2)(c2ccccc2)c2ccccc2)c(=O)[nH]1	268 to 270 °C
COc1cc2c(cc1OC)N(C)C(=O)CN=C2c1cncc2ccccc12	131 to 135 °C
Cc1ccncc1-c1cc2ccncc2c(N)n1	280 to 282 °C
O=c1[nH]c2ccccc2cc1Br	263 to 265 °C
Cc1cc(CCc2cc(C)cc(C(C)(C)C)c2O)c(O)c(C(C)(C)C)c1	104 to 105 °C
Cc1nc2c(Cl)cc(F)c(-n3c(=O)cc(C(F)(F)F)n(C)c3=O)c2s1	83 to 85 °C
O=S(=O)(c1ccc(O)cc1)N1c2ccc(Br)cc2-c2ccccc2C1c1ccccc1 (configuration not stated)	262 to 265 °C
CCCCCOc1ccc2c(c1)C=C(CN)CO2	126 °C
CC(C)(C)CN1C(=O)CC(=O)N(c2ccccc2Cl)c2cc(Cl)ccc21	245 to 246 °C
CC=C1CCC2C3C(O)CC4CC(O)CCC4(C)C3CCC12C (configuration not stated)	160 to 161 °C
c1ccc(C2CCCC2OCC2CO2)cc1 (configuration not stated)	31 °C
Oc1ccc(C(=S)N2CCOCC2)cc1	205 °C
Cc1cc(C2=NOC(c3cccc(C(F)(F)F)c3)(C(F)(F)F)C2)ccc1Br (configuration not stated)	84 to 85 °C
Cc1cccc(-c2[nH]c(C(C)C)nc2-c2cccc(-c3ccc(F)cc3)c2)n1	83 to 85 °C
O=C1c2c(O)ccc(O)c2C(=O)c2c(NCCN3CCCCC3)ccc(NCCN3CCCCC3)c21	219 to 221 °C
CC(C)Cc1ccc(C(Nc2cccc(C(=O)n3cc(CCCC(=O)O)c4ccccc43)c2)c2ccc(CC(C)C)cc2)cc1	74.8 °C
OCc1ccc2cccc3c2c1-c1ccccc1-3	147 to 185 °C

Other lines, results leading:

melting point	SMILES
106 to 107 °C	Cc1nccn1-c1ccc([N+](=O)[O-])cc1F
127 to 129 °C	Cc1nccn1-c1nc(-c2ccc(C(F)(F)F)cc2)c(CCCO)o1
123 °C	COc1ccc(C(Cc2ccc(NC(=O)OC(C)(C)C)cc2)c2ccccc2)cc1OC1CCCC1 (configuration not stated)
141 °C	CC(C)CCNC(=O)c1ccccc1-c1ccccc1CNS(=O)(=O)c1cccc(F)c1
246 °C	CN(C)C(=O)CC1(O)C(=O)Nc2ccc(I)cc21 (configuration not stated)
195 °C	Cc1cccc(-c2csc(N3C(=O)c4ccccc4C3=O)c2C(=O)O)c1
240 to 248 °C	CC(=O)N1CCC(NC(=O)Nc2ccc(C(F)(F)F)cc2)CC1
141 to 142 °C	Cc1cccc(C(=O)O)c1OC(=O)C=Cc1ccccc1
155 to 157 °C	CN(CCOc1ccc(NS(C)(=O)=O)cc1)CCc1ccc(N)cc1
80 to 84 °C	CC(C)(N)CNC(=O)CNC(=O)c1ccccc1
237 to 238 °C	O=C(Nc1ccccc1F)c1c(O)ccn2c1nc1ccccc12
144 to 146 °C	CN(C)C(=O)c1cc(O)ccc1O
99 to 100 °C	CC(C)(C)OC(=O)Cn1c(=O)n(Cc2ccccc2)c2ccccc21
265 to 268 °C	CSCC[C@H]1NC(=O)[C@@H]([C@H](C)c2cccc3ccccc23)NC1=O
88 to 89 °C	CC(=O)SCSc1c[nH]nn1
162 to 163 °C	Cn1c(COc2ccc(CC3SC(=O)NC3=O)cc2)nc2ccc(Oc3cccc(NC(=O)Nc4cccc(C(F)(F)F)c4)c3)cc21 (configuration not stated)
209 to 210 °C	Cc1cc(NC(=O)C2=C(O)c3ccsc3S(=O)(=O)C2)no1
105 to 135 °C	Nc1ccccc1NC(=O)c1cc2cccc(OCc3ccccn3)c2o1

melting point	SMILES
68 to 70 °C	CCOC(=O)N1CCN(c2nc(NC3CC3)ccc2F)CC1
184 to 186 °C	C=CCNc1cc(Cl)nnc1NN
119 to 121 °C	COc1cc(OC)nc(C(C)c2ccccc2NC(=O)OC(C)(C)C)n1 (configuration not stated)
204 to 207 °C	CC(=O)N1CCN(Cc2ccc(CCn3cnc4cc(-c5ccc(Cl)cc5)sc4c3=O)cc2)C(=O)C1
117 to 119 °C	CCOC(=O)c1cn(CC(I)=C(I)I)c(Cl)c1Cl
250 to 251 °C	CC(C)NC1=NS(=O)(=O)c2sc(Br)c(Br)c2N1
163 to 167 °C	COC(=O)C=Cc1ccc(C=CC(=O)OC)cc1
198 to 199 °C	CC(C)(C)c1ccnc(NC(=O)Nc2ccc(Oc3ccc(Cl)cc3)cc2)c1
134 to 137 °C	COC(=O)C1=C(CO)NC(C)=C(C(=O)OC(C)C)C1c1ccccc1C#N (configuration not stated)
131 to 132 °C	CCOc1nc(C(F)(F)F)cc(=O)n1-c1cc(OCCON=C(C)C)c(Br)cc1F
118 to 119 °C	O=C(c1ccccc1CBr)c1cc(F)ccc1CBr
204 to 206 °C	O=c1[nH]ncc2[nH]c(-c3ccc(OC(F)F)c(OC4CC4)c3)c(CC3CC3)c12
200 °C	CCc1nc2c(o1)C(=O)C=C(Nc1ccccc1)C2=O
275 °C	O=C(Nc1ccc2ccc(Cl)nc2n1)c1ccc(Cl)s1
188 to 190 °C	CC(=O)N1CC(CCN2CCC(c3c[nH]c4cc(Cl)ccc34)CC2)c2ccccc21 (configuration not stated)
125 to 137 °C	O=C(Nc1cccc(Cl)c1)ONC1C=NC(c2ccccc2Cl)=c2cc(Cl)ccc2=N1 (configuration not stated)
71 to 73 °C	CC(O)CC(=O)NCCN (configuration not stated)
184 to 187 °C	COc1ccc(S(N)(=O)=O)cc1C(=O)NC1CCN(C2CCCCC2)C1 (configuration not stated)
